From patent US12661324B2, “Solid dispersion, pharmaceutical preparations, preparation method, and application thereof” (ASCENTAGE PHARMA (SUZHOU) CO., LTD., priority 2020, dated 2026) come the findings set out here.

Converted amounts (≈) assume the structure as drawn.

Data set [1] can be described thus: Drug dissolution test, rotating basket method, 0.2% SDS solution. The format is physicochemical. The settings on record: 500 ml, 100 rpm. The protocol: Drug dissolution test was performed on the solid dispersion (rotating basket method, 0.2% SDS solution, 500 ml, 100 rpm). […] Under the same conditions, the drug dissolution of API (compound prepared in example 1) in 10 min, 30 min and 60 min were 7%, 13% and 22% respectively.

A short description of data set [2]: Equilibrium solubility test. In kind it is physicochemical. The settings on record: 37 °C, thermodynamic from solid. The protocol:
After 2 and 24 hours of high-speed centrifugation, the supernatant was taken, and the concentration of API in the supernatant was determined by high-performance liquid chromatography.

Data set [3] is described as follows: Pharmacokinetic test in mice (Effect Example 3). In kind it is in vivo. The settings on record: mouse, plasma, po, male mice, single gavage. The protocol:
Four groups of male mice were randomly divided into two groups: test article 1 (solid dispersion prepared in Example 7 and suspension prepared with reverse osmosis water as solvent), the dosages are 25 mg/kg and 100 mg/kg respectively; test article 2 (API prepared in example 1 and suspension prepared with aqueous solution containing 0.2% HPMC-E5), the dosages are 25 mg/kg and 100 mg/kg, respectively. The animals in each group were administered by single gavage.
All animals collected blood samples and separated plasma at 0.087 h, 0.25 h, 0.5 h, 1 h, 2 h, 4 h, 6 h, 8 h and 24 h after administration. All plasma samples were analyzed by LC-MS/Ms. the lower limit of quantification of the method was 10 ng/ml. The plasma concentration data were analyzed by non-compartmental model method (NCA) of metabolic kinetic data analysis software winnonlin8.0.0.3176, and the pharmacokinetic parameters were calculated to evaluate the kinetic characteristics of API in animals after administration.

Data set [4] can be described thus: Solubility in aqueous medium pH 1-7. The format is physicochemical. The settings on record: aqueous buffer, thermodynamic from solid, 37° C. for 24 hours, acidic or neutral medium pH 1-7. The text has this: The compound of formula (I) is usually in crystalline form and has very low solubility. […] Even after high humidity (60%) and long-term (12 months) storage, the compound of formula (1) in the solid dispersion of the invention will not be transformed or degraded.

With `O=C(NS(=O)(=O)c1ccc(NC[C@H]2COCCO2)c([N+](=O)[O-])c1)c1ccc(N2CCN(CC3=C(c4ccc(Cl)cc4)CC4(CCC4)CC3)CC2)cc1Oc1cnc2[nH]ccc2c1` [API, 4-{4-{[6-(4-Chloro-phenyl)-spiro[3,5]nonane-6-ene-7-yl]methyl}-piperazine-1-yl}-N-{{3-nitro-4-[((2S)-[1,4]dioxane-2-ylmethyl)-amino]phenyl}sulfonyl}-2-(1H-pyrrolo[2,3-b]pyridin-5-yloxy)-benzamide], the drug dissolution in data set [1] (10 min) was found to be 7%. Further, in data set [1] (30 min), the drug dissolution was found to be 13%. In addition, the drug dissolution in data set [1] (60 min) is 22%. For the same compound, in data set [2] (FaSSIF), the solubility at 2 h came to 1.3 µg/mL (≈ 1.47 µM) and the solubility at 24 h was determined as 0.6 µg/mL (≈ 0.68 µM). In data set [2] (FeSSIF), this compound displayed a solubility at 2 h of 2.5 µg/mL (≈ 2.83 µM) and a solubility at 24 h of 0.5 µg/mL (≈ 0.567 µM). Further, in data set [3] (25 mg/kg), the AUC(0-inf) is 637 ng·h/mL, the AUC(0-t) is 384 ng·h/mL, the Cmax turned out to be 82.2 ng/mL and the Tmax is 3.33 h. This compound had a half-life in data set [3] (25 mg/kg) of 7.41 h. Besides, in data set [3] (100 mg/kg), the AUC(0-inf) amounted to 1120 ng·h/mL, the AUC(0-t) amounted to 1100 ng·h/mL, the Cmax is 105 ng/mL and the Tmax was found to be 1 h. Moreover, the half-life in data set [3] (100 mg/kg) is 3.7 h.

For the compound `O=C(NS(=O)(=O)c1ccc(NC[C@H]2COCCO2)c([N+](=O)[O-])c1)c1ccc(N2CCN(CC3=C(c4ccc(Cl)cc4)CC4(CCC4)CC3)CC2)cc1Oc1cnc2[nH]ccc2c1` [compound of formula (I), 4-{4-{[6-(4-Chloro-phenyl)-spiro[3,5]nonane-6-ene-7-yl]methyl}-piperazine-1-yl}-N-{{3-nitro-4-[((2S)-[1,4]dioxane-2-ylmethyl)-amino]phenyl}sulfonyl}-2-(1H-pyrrolo[2,3-b]pyridin-5-yloxy)-benzamide], the solubility at 24 h in data set [4] was 0.3 to 0.6 µg/mL.

The term solubility denotes how much of the substance goes into solution per volume. By half-life is commonly meant how long it takes for the measured level to halve.
